Results from EP0975634B1, “FUNGICIDAL TRIFLUOROPHENYL-TRIAZOLOPYRIMIDINES” (BASF AKTIENGESELLSCHAFT, priority 1997, dated 1998).
≈ marks a conversion by molar mass, not a printed value. Like-named read-outs stand apart in the source and are kept apart here.

Tests used:
Altemaria solani = experiment: organism not typed; assay type: cell-based; details: for MIC: read-out: MIC (Minimum Inhibitory Concentration) ALTESO
Botrytis cinerea = experiment: microbe, parasite or virus in culture; assay type: cell-based; details: for MIC: Botrytis cinerea, read-out: MIC (Minimum Inhibitory Concentration) BOTRCI
Leptosphaeria nodorum = experiment: Minimum Inhibitory Concentration, serial dilution test; assay type: cell-based; details: for MIC: Parastagonospora nodorum, read-out: MIC (Minimum Inhibitory Concentration) LEPTNO
Phytophthora infestans = experiment: microbe, parasite or virus in culture; assay type: cell-based; details: for MIC: Phytophthora infestans, read-out: MIC (Minimum Inhibitory Concentration) PHYTIN; for MIC (Minimum Inhibitory Concentration) PHYTIN: total inhibition of mycelial growth, V8 nutrient solution, 6-12 days incubation at 18-25°C, visual inspection
[1] = test system: Magnaporthe grisea f. sp. Oryzae; experiment: microbe, parasite or virus in culture; assay type: cell-based; details: for MIC: Pyricularia oryzae, read-out: MIC (Minimum Inhibitory Concentration) PYRIOR; for MIC (Minimum Inhibitory Concentration) PYRIOR: total inhibition of mycelial growth, V8 nutrient solution, 6-12 days incubation at 18-25°C, visual inspection
Pyrenophora teres = experiment: Minimum Inhibitory Concentration, serial dilution test; assay type: cell-based; details: for MIC: Pyrenophora teres, read-out: MIC (Minimum Inhibitory Concentration) PYRNTE
Uncinula necator = experiment: Control of powdery mildew on grapes, prophylactic greenhouse test; assay type: in vivo; details: grape cultivar Müller-Thurgau, application 3 days before infection, evaluation 21 days after infection; for activity at 3.13 ppm / activity at 6.25 ppm / activity at 12.5 ppm / activity at 25 ppm: Erysiphe necator, read-out: % activity (ABBOTT formula)
Rhizoctonia solani = experiment: Minimum Inhibitory Concentration, serial dilution test; assay type: cell-based; details: for MIC: Rhizoctonia solani, read-out: MIC (Minimum Inhibitory Concentration) RHISZO
[2] = total inhibition of mycelial growth, V8 nutrient solution, 6-12 days incubation at 18-25°C, visual inspection

Compound	MIC (Altemaria solani) [µg/mL]	MIC (Botrytis cinerea) [µg/mL]	MIC (Leptosphaeria nodorum; [2]) [µg/mL]	MIC [1] [µg/mL]	MIC (Pyrenophora teres; [2]) [µg/mL]	activity at 3.13 ppm (Uncinula necator; Concentration 3.13 ppm) [%]	activity at 6.25 ppm (Uncinula necator; Concentration 6.25 ppm) [%]	activity at 12.5 ppm (Uncinula necator; Concentration 12.50 ppm) [%]	activity at 25 ppm (Uncinula necator; Concentration 25.00 ppm) [%]	MIC (Minimum Inhibitory Concentration) ALTESO (Altemaria solani) [µg/mL]	MIC (Minimum Inhibitory Concentration) BOTRCI (Botrytis cinerea) [µg/mL]	MIC (Minimum Inhibitory Concentration) PHYTIN (Phytophthora infestans) [µg/mL]	MIC (Minimum Inhibitory Concentration) PYRIOR [1] [µg/mL]	other results
CC1CCN(c2c(-c3c(F)cc(F)cc3F)c(Cl)nc3ncnn23)CC1 [Example 2, 5-chloro-7-(4-methylpiperidin-1-yl)-6-(2,4,6-trifluorophenyl)-[1,2,4]triazolo[1,5-a]pyrimidine]	40 (≈ 0.105 mM)	100 (≈ 0.262 mM)	6250 (≈ 16.4 mM)	40 (≈ 0.105 mM)	200 (≈ 0.524 mM)	100	100	100	100					MIC (Phytophthora infestans): 100000 µg/mL (≈ 262 mM)
Fc1cc(F)c(-c2c(Cl)nc3ncnn3c2NC2CC3CCC2C3)c(F)c1 (stereo not shown) [Example 11, 5-chloro-7-(N-norborn-2-ylamino)-6-(2,4,6-trifluorophenyl)-[1,2,4]triazolo[1,5-a]pyrimidine]						64	93	100	100					
Fc1cc(F)c(-c2c(Cl)nc3ncnn3c2NCC(F)(F)F)c(F)c1 [Example 12, 5-chloro-7-(N-2,2,2-trifluoroethylamino)-6-(2,4,6-trifluorophenyl)-[1,2,4]triazolo[1,5-a]pyrimidine]	1560 (≈ 4.09 mM)	1560 (≈ 4.09 mM)	6250 (≈ 16.4 mM)	200 (≈ 0.524 mM)	6250 (≈ 16.4 mM)	97	100	100	100					MIC (Phytophthora infestans): 25000 µg/mL (≈ 65.5 mM); MIC (Rhizoctonia solani; [2]): 6250 µg/mL (≈ 16.4 mM)
CC(C)CN(CC(F)(F)F)c1c(-c2c(F)cc(F)cc2F)c(Cl)nc2ncnn12 [Example 26, 5-chloro-7-(N-2-methylpropyl-N-2,2,2-trifluoroethylamino)-6-(2,4,6-trifluorophenyl)-[1,2,4]triazolo[1,5-a]pyrimidine]	200 (≈ 0.457 mM)	200 (≈ 0.457 mM)	390 (≈ 0.891 mM)	40 (≈ 0.0914 mM)		0	14	22	27					MIC (Rhizoctonia solani; [2]): 3130 µg/mL (≈ 7.15 mM)
CN(CC(F)(F)F)c1c(-c2c(F)cc(F)cc2F)c(Cl)nc2ncnn12 [Example 27, 5-chloro-7-(N-methyl-N-2,2.2-trifluoroethylamino)-6-(2,4,6-trifluorophenyl)-[1,2,4]triazolo[1,5-a]-pyrimidine]										780 (≈ 1.97 mM)	3130 (≈ 7.91 mM)	110000 (≈ 278 mM)	100 (≈ 0.253 mM)	MIC (Minimum Inhibitory Concentration) LEPTNO (Leptosphaeria nodorum; [2]): 50000 µg/mL (≈ 126 mM); MIC (Minimum Inhibitory Concentration) PYRNTE (Pyrenophora teres; [2]): 12500 µg/mL (≈ 31.6 mM); MIC (Minimum Inhibitory Concentration) RHISZO (Rhizoctonia solani; [2]): 1560 µg/mL (≈ 3.94 mM); % activity (ABBOTT formula) (Uncinula necator; Concentration 3.13 ppm): 0%; % activity (ABBOTT formula) (Uncinula necator; Concentration 6.25 ppm): 0%; % activity (ABBOTT formula) (Uncinula necator; Concentration 12.50 ppm): 11%; % activity (ABBOTT formula) (Uncinula necator; Concentration 25.00 ppm): 17%
CC(Nc1c(-c2c(F)cc(F)cc2F)c(Cl)nc2ncnn12)C(F)(F)F (stereo not shown) [Example 28, 5-chloro-7-[N-2-(1,1,1-trifluoropropyl)-amino]-6-(2,4,6-trifluorophenyl)-[1,2,4]triazolo[1,5-a]pyrimidine]										780 (≈ 1.97 mM)	3130 (≈ 7.91 mM)	110000 (≈ 278 mM)	780 (≈ 1.97 mM)	MIC (Minimum Inhibitory Concentration) LEPTNO (Leptosphaeria nodorum; [2]): 3130 µg/mL (≈ 7.91 mM); MIC (Minimum Inhibitory Concentration) PYRNTE (Pyrenophora teres; [2]): 6250 µg/mL (≈ 15.8 mM); MIC (Minimum Inhibitory Concentration) RHISZO (Rhizoctonia solani; [2]): 3130 µg/mL (≈ 7.91 mM); % activity (ABBOTT formula) (Uncinula necator; Concentration 3.13 ppm): 97%; % activity (ABBOTT formula) (Uncinula necator; Concentration 6.25 ppm): 100%; % activity (ABBOTT formula) (Uncinula necator; Concentration 12.50 ppm): 100%; % activity (ABBOTT formula) (Uncinula necator; Concentration 25.00 ppm): 100%
C[Si](C)(C)CN(CC(F)(F)F)c1c(-c2c(F)cc(F)cc2F)c(Cl)nc2ncnn12 [Example 40, 5-chloro-7-[N-(2.2,2-trifluoroethyl)-N-(trimethylsiiylmethyl)-amino]-6-(2.4,6-trifiuorophenyl)-[1,2,4]triazolo[1,5-a]pyrimidine]										780 (≈ 1.67 mM)	6250 (≈ 13.4 mM)	25000 (≈ 53.4 mM)	1560 (≈ 3.33 mM)	MIC (Minimum Inhibitory Concentration) LEPTNO (Leptosphaeria nodorum): 110000 µg/mL (≈ 235 mM); MIC (Minimum Inhibitory Concentration) PYRNTE (Pyrenophora teres): 25000 µg/mL (≈ 53.4 mM); MIC (Minimum Inhibitory Concentration) RHISZO (Rhizoctonia solani): 110000 µg/mL (≈ 235 mM)
OC1CCCN(c2c(-c3c(F)cc(F)cc3F)c(Cl)nc3ncnn23)C1 (stereo not shown) [Example 41, 5-chloro-7-(3-hydroxypiperidin-1-yl)-6-(2,4,6-trifluorophenyl)-[1,2,4]triazolo[1,5-a]-pyrimidine]	6250 (≈ 16.3 mM)	100000 (≈ 261 mM)	50000 (≈ 130 mM)	12500 (≈ 32.6 mM)	25000 (≈ 65.1 mM)									
Fc1cc(F)c(-c2c(Cl)nc3ncnn3c2NC(c2ccccc2)C(F)(F)F)c(F)c1 (stereo not shown) [Example 52, 5-chloro-7-[N-(1-phenyl-2,2,2-trifluoroethyl)-amino]-6-(2,4,6-trifluorophenyl)-[1,2,4]triazolo[1,5-a]pyrimidine]	3130 (≈ 6.84 mM)	12500 (≈ 27.3 mM)		1560 (≈ 3.41 mM)	3130 (≈ 6.84 mM)									
CC(C)CCN(C)c1c(-c2c(F)cc(F)cc2F)c(Cl)nc2ncnn12 [Example 54, 5-chloro-7-[N-(3-methylbutyl)-N-methylamino]-6-(2,4,6-trifluorophenyl)-[1,2,4]triazolo[1,5-a]pyrimidine]	780 (≈ 2.03 mM)	3130 (≈ 8.16 mM)	12500 (≈ 32.6 mM)	40 (≈ 0.104 mM)	3130 (≈ 8.16 mM)									
CC(C)C(Nc1c(-c2c(F)cc(F)cc2F)c(Cl)nc2ncnn12)C(F)(F)F (stereo not shown) [Example 55, 5-chloro-7-[N-2-(3-methyl-1,1,1-trifluorobutyl)-amino]-6-(2,4,6-trifluorophenyl)-[1,2,4]triazolo[1,5-a]-pyrimidine]										390 (≈ 0.92 mM)	1560 (≈ 3.68 mM)	100000 (≈ 236 mM)	40 (≈ 0.0944 mM)	MIC (Minimum Inhibitory Concentration) LEPTNO (Leptosphaeria nodorum; [2]): 1560 µg/mL (≈ 3.68 mM); MIC (Minimum Inhibitory Concentration) PYRNTE (Pyrenophora teres; [2]): 6250 µg/mL (≈ 14.7 mM); MIC (Minimum Inhibitory Concentration) RHISZO (Rhizoctonia solani; [2]): 12500 µg/mL (≈ 29.5 mM)
CCCC(Nc1c(-c2c(F)cc(F)cc2F)c(Cl)nc2ncnn12)C(C)C (stereo not shown) [Example 57, 5-chloro-7-[3-(2-methylhexyl)-amino]-6-(2,4,6-trifluorophenyl)-[1,2,4]triazolo[5-a]-pyrimidine]										200 (≈ 0.503 mM)	390 (≈ 0.98 mM)	110000 (≈ 276 mM)	40 (≈ 0.101 mM)	MIC (Minimum Inhibitory Concentration) LEPTNO (Leptosphaeria nodorum; [2]): 780 µg/mL (≈ 1.96 mM); MIC (Minimum Inhibitory Concentration) PYRNTE (Pyrenophora teres; [2]): 3130 µg/mL (≈ 7.87 mM); MIC (Minimum Inhibitory Concentration) RHISZO (Rhizoctonia solani; [2]): 110000 µg/mL (≈ 276 mM)
OC(c1ccc(Cl)cc1)(c1cncnc1)c1ccccc1Cl (stereo not shown) [Fenarimol, reference compound]						31	75	95	99					
CCCC(Cn1cncn1)c1ccc(Cl)cc1Cl (stereo not shown) [Penconazole, reference compound]						11	17	31	58					
CC1CCN(c2c(-c3c(F)cccc3Cl)c(Cl)nc3ncnn23)CC1 [standard^1, 5-chloro-7-(4-methylpiperidin-1-yl)-6-(2-chloro-6-fluorophenyl)-[1,2,4]triazolo[1,5-a]pyrimidine, reference compound]						31	42	44	73					
